Test results taken from PMC5004205, “Spiro[pyrrolidine-3, 3´-oxindole] as potent anti-breast cancer compounds: Their design, synthesis, biological evaluation and cellular target identification” (Scientific Reports, 2016).
≈ marks a conversion by molar mass, not a printed value. Where “and” joins values, the source holds several entries; their conditions need not be identical. Identical values can stand only once. Entries after “also recorded” stand apart in the source; their conditions may differ.

What was measured:
[1] = system: MCF-7 cells; conditions: cited from earlier work
[2] = system: MCF-7 breast cancer cells; test: MTT colorimetric cell viability assay, MCF-7; assay type: cell-based; conditions: for inhibition at 50 µM / EC50: Homo sapiens; for inhibition at 50 µM: MCF7, 48 hours, MTT, triplicates, read-out: Percentage inhibition MCF-7; for CTRL-TST/CTRL*100 (inhibition) MCF-7: EC50 plate; for EC50: MCF7, MTT, mean of three experiments
Experimental: MCF-7 cells were maintained as monolayer in 25 cm^2 culture flasks (T-25) at 37 °C in DMEM medium (GIBCO, St. Louis, USA) supplemented with high glucose, L-glutamine, pyridoxine hydrochloride, 110 mg/L sodium pyruvate, 3.7 g/L NaHCO3 and antibiotics (Penicillin-10,000 units/mL, Streptomycin −10,000 μg/mL, GIBCO, USA). Growth medium (pH 7.4) was prepared by adding 5% heat inactivated FBS (Fetal Bovine Serum, GIBCO, USA) and stored at 4 °C. The medium was changed 10–18 hrs prior to experiment, and cells were confluent at the time of experimentation. Cells were dislodged from flasks by gentle trypsinization containing 0.25% Trypsin. MCF-7 cells were regularly sub-cultured thrice a week in a seeding density of 40,000–50,000 cells/cm^2area. Cell confluency = 70%
The MTT colorimetric viability assay was performed to evaluate the anticancer effect of compounds. 30,000 cells/100 μl of media were seeded per well and allowed to stretch and adhere overnight at 37 °C. Following day media was removed and 100 μl fresh media was added to the grown cells. […] There was one positive and one negative control along with 13 compounds. The results were measured all in triplicate in 45 wells of 96 well plate at each time point. Cytotoxic effect was evaluated using ability of live cells to cleave MTT ((3-[4, 5- dimethylthiazol-2-yl]-2, 5-diphenyl tetrazolium bromide)) (Sigma-Aldrich, St Louis, MO, USA), into formazan crystals. Post 48 hours of treatment, 10 μl of MTT (5 mg/ml in PBS) was added to the cells and incubated for 4 hours in dark at 37 °C. The violet colored crystals formed were then dissolved in 100 μl DMSO solvent (Dimethyl Sulfoxide, Sigma-Aldrich, St. Louis, MO, USA). The colorimetric assay was read by a MultiMode Plate Reader (Bio-Rad) at 595 nm. Percentage of Inhibition of drug was calculated by following formula:
O.D1 O.D2 O.D3 AVG CTRL-TST CTRL-TST/CTRL*100 stdev

[3] = system: COS-7 cells; test: MTT colorimetric cell viability assay, COS-7; assay type: cell-based; conditions: for inhibition at 50 µM: Chlorocebus aethiops, COS-7, MTT, triplicates, read-out: Percentage inhibition COS-7
Experimental: (§1) The MTT colorimetric viability assay was performed to evaluate the anticancer effect of compounds. 30,000 cells/100 μl of media were seeded per well and allowed to stretch and adhere overnight at 37 °C. Following day media was removed and 100 μl fresh media was added to the grown cells. Adhered cells were then treated with the compounds 5a-m dissolved in DMSO in triplicates at a standard concentration of 50 μM for 48 hours. There was one positive and one negative control along with 13 compounds. The results were measured all in triplicate in 45 wells of 96 well plate at each time point. Cytotoxic effect was evaluated using ability of live cells to cleave MTT ((3-[4, 5- dimethylthiazol-2-yl]-2, 5-diphenyl tetrazolium bromide)) (Sigma-Aldrich, St Louis, MO, USA), into formazan crystals. Post 48 hours of treatment, 10 μl of MTT (5 mg/ml in PBS) was added to the cells and incubated for 4 hours in dark at 37 °C. The violet colored crystals formed were then dissolved in 100 μl DMSO solvent (Dimethyl Sulfoxide, Sigma-Aldrich, St. Louis, MO, USA). The colorimetric assay was read by a MultiMode Plate Reader (Bio-Rad) at 595 nm. Percentage of Inhibition of drug was calculated by following formula: […]

[4] = system: MCF10A cells; test: MTT cytotoxicity assay, MCF10A; assay type: cell-based; conditions: for CTRL-TST/CTRL*100 MCF10A cytotoxicity / Percentage inhibition MCF10A: 48 hours; for CTRL-TST/CTRL*100 MCF10A cytotoxicity: 595 nm; for Percentage inhibition MCF10A: MTT
Experimental: MCF10A was obtained from American Tissue Type Culture Collection (ATCC, Bethesda, MD). All cells were grown in a humidified atmosphere at 37 °C, with 5% CO2 in air.
as §1
Cytotoxicity assay with MCF 10A
Experiment :MCF10A cytotoxicity assay 48 hours
Raw Data{Wavelength:595.0}
O.D1 O.D2 O.D3 AVG CTRL-TEST CTRL-TST/CTRL*100
(1 picture or pasted object on this page, not shown here)

[5] = system: MCF-7 cells; test: DNA fragmentation (DNA-ladder) assay; assay type: cell-based; conditions: MCF-7, gel electrophoresis
Experimental: The DMSO (dimethyl sulphoxide)–SDS (sodium dodecyl sulphate)–TE (Tris-EDTA) method: 2 million MCF-7cells were taken as starting material for DNA isolation. Cells were dislodged with Trypsin-EDTA and washed with 1 X PBS. DMSO was added directly to the cell pellet (100 μl) and mixed well by pipetting. TE buffer (pH 7.4) with 2% SDS was added into the mixture with same volume, followed by pipetting. The solution was centrifuged at 3000 rpm at 4 °C and 30 μL of the supernatant was loaded on agarose gel to check the effect of drugs on DNA molecule.

[6] = system: MCF-7 cells; test: Cell migration (scratch) assay; assay type: cell-based; conditions: 24 hours, compared to untreated cells
Experimental: MCF-7 cells were grown to confluence in six-well tissue culture plastic dishes to a density of ∼0.2 million cells/well. After 24 hrs of seeding, cells were treated with chemical compounds. The medium was removed and the cells were scratched by 200 μL pipette micro tip through the center of the plate. The cultures were washed to remove debris and re-cultured with DMEM containing 10% FBS for cell migration. The cells were imaged at 24 hrs and the migrated distance was measured. Migration rate was calculated by counting five to seven fields per image and the results presented as the average of three independent experiments performed over multiple days.

[7] = system: MCF-7 cells; test: Annexin V/propidium iodide FACS assay; assay type: cell-based
Experimental: The assay is based on the ability of the protein annexin V to bind to phosphatidylserine (PS) exposed on the outer membrane leaflet in apoptotic cells (PS also appears on the necrotic cell surface). The annexin V assay was performed following the manufacturer’s instructions (Annexin V-FITC kit,Alexa Fluor). Briefly, the cells were washed with PBS and suspended in pre-diluted binding buffer. The cell density was adjusted to 2 million and 195 μl of cell suspension were mixed with 5 μl Annexin V-FITC and incubated for 10 min in the dark at room temperature. The cells were washed with binding buffer, re-suspended in 195 μl binding buffer, counterstained with 10 μl of the 20 μg/ml propidium iodide stock (final concentration 1 μg/ml) and the data were acquired by BD FACS diva 7.0 at 6 h, 12 h and 24 h.

[8] = system: PKCα kinase; design: method as in Shantani UPT Application Notes; conditions: at 1μM; ref Shantani UPT Application Notes; cited from earlier work

In the case of `CS[C@@]1(C)C(=O)N(C)[C@@](Cc2c[nH]c3ccccc23)(SC)C(=O)N1C` [Chaetocochins G], the “IC50 in MCF-7” value [1] is given as 16.9 µg/mL (≈ 44.8 µM) and the “Mode of cell death” value [1] is given as “Induces Apoptosis”.
Molecule `Cc1ccc(C2NCCC23C(=O)Nc2ccccc23)cc1` (centres unmarked) [Compound 5a] has an inhibition at 50 µM [2] of 35.06 ± 0.09% and an inhibition at 50 µM [3] of 11.73 ± 0.09%.
`O=C1Nc2ccccc2C12CCNC2c1cccc(C(F)(F)F)c1` (centres unmarked) [Compound 5b] showed an inhibition at 50 µM [2] of 33.1 ± 0.12% and an inhibition at 50 µM [3] of 20.73 ± 0.11%.
With `Cc1cc(C)cc(C2NCCC23C(=O)Nc2ccccc23)c1` (centres unmarked) [Compound 5c] the inhibition at 50 µM [2] was 34.46 ± 0.11% and the inhibition at 50 µM [3] was 28.8 ± 0.13%.
`O=C1Nc2ccccc2C12CCNC2c1c(F)cccc1F` (centres unmarked) [Compound 5d] showed an inhibition at 50 µM [2] of 44.25 ± 0.17% and an inhibition at 50 µM [3] of 9.22 ± 0.12%.
With `O=C1Nc2ccccc2C12CCNC2c1cccc(F)c1` (centres unmarked) [Compound 5e] the “Effect on proliferation of healthy MCF10A cells” value [4] was “did not inhibit the proliferation; also recorded: little or no effect”, the “CTRL-TST/CTRL*100 MCF10A cytotoxicity” value [4] was 4.48 and the “Percentage inhibition MCF10A” value [4] was 4.48%. The “CTRL-TST/CTRL*100 (inhibition) MCF-7” value ([2]; concentration row 10) was -4.013, the “CTRL-TST/CTRL*100 (inhibition) MCF-7” value ([2]; concentration row 20) was 8.388 and the “CTRL-TST/CTRL*100 (inhibition) MCF-7” value ([2]; concentration row 30) was 23.78. For the same molecule, the “CTRL-TST/CTRL*100 (inhibition) MCF-7” value ([2]; concentration row 40) was 31.55, the “CTRL-TST/CTRL*100 (inhibition) MCF-7” value ([2]; concentration row 50) was 52.5 and the EC50 [2] was 6 µM. The inhibition at 50 µM [2] was 54.67 ± 0.08%, the “Inhibition of proliferation of healthy COS-7 cells” value [3] was “did not inhibit the proliferation” and the inhibition at 50 µM [3] was 3.56 ± 0.19%.
`COc1cccc(C2NCCC23C(=O)Nc2ccccc23)c1` (centres unmarked) [Compound 5f] gave an inhibition at 50 µM [2] of 38.48 ± 0.18% and an inhibition at 50 µM [3] of 34.87 ± 0.17%.
`COc1ccc(C2NCCC23C(=O)Nc2ccccc23)cc1OC` (centres unmarked) [Compound 5g] gave an inhibition at 50 µM [2] of 25.29 ± 0.24% and an inhibition at 50 µM [3] of 2.39 ± 0.23%.
For `COc1ccc(C2NCCC23C(=O)Nc2ccccc23)cc1` (centres unmarked) [Compound 5h], the inhibition at 50 µM [2] was 50.62 ± 0.24% and the inhibition at 50 µM [3] was 25.2 ± 0.06%.
With `COc1cc(OC)c(C2NCCC23C(=O)Nc2ccccc23)cc1OC` (centres unmarked) [Compound 5i] the “DNA fragmentation pattern / mode of cell death” value [5] was “smearing of DNA fragments”, the “Effect on proliferation of healthy MCF10A cells” value [4] was “did not inhibit the proliferation; also recorded: little or no effect” and the “CTRL-TST/CTRL*100 MCF10A cytotoxicity” value [4] was 0.8. The “Percentage inhibition MCF10A” value [4] was 0.8%, the “CTRL-TST/CTRL*100 (inhibition) MCF-7” value ([2]; concentration row 10) was 7.139 and the “CTRL-TST/CTRL*100 (inhibition) MCF-7” value ([2]; concentration row 20) was 20.22. For the same molecule, the “CTRL-TST/CTRL*100 (inhibition) MCF-7” value ([2]; concentration row 30) was 43.4, the “CTRL-TST/CTRL*100 (inhibition) MCF-7” value ([2]; concentration row 40) was 50.54 and the “CTRL-TST/CTRL*100 (inhibition) MCF-7” value ([2]; concentration row 50) was 66.16. The EC50 [2] was 4.01 µM, the inhibition at 50 µM [2] was 53.66 ± 0.06% and the “Inhibition of cell migration of MCF-7 cells” value [6] was “inhibit cell migration”. For the same molecule, the “Inhibition of proliferation of healthy COS-7 cells” value [3] was “did not inhibit the proliferation”, the inhibition at 50 µM [3] was 15.6 ± 0.09% and the “Mode of cell death by Annexin-PI FACS” value [7] was “necrosis was also confirmed”.
In the case of `COc1ccc(C2NCCC23C(=O)Nc2ccccc23)c(F)c1` (centres unmarked) [Compound 5j], the inhibition at 50 µM [2] is reported as 38.72 ± 0.15% and the inhibition at 50 µM [3] is reported as 7.52 ± 0.15%.
Work on `COc1ccc(C2NCCC23C(=O)Nc2ccccc23)cc1C` (centres unmarked) [Compound 5k] yielded an inhibition at 50 µM [2] of 44.4 ± 0.09% and an inhibition at 50 µM [3] of 7.14 ± 0.19%.
Molecule `O=C1Nc2ccccc2C12CCNC2c1cc(C(F)(F)F)ccc1C(F)(F)F` (centres unmarked) [Compound 5m] has an inhibition at 50 µM [2] of 31.81 ± 0.11% and an inhibition at 50 µM [3] of -0.51 ± 0.29%.
With `COc1cc([C@@H]2c3cc4c(cc3[C@@H](O[C@@H]3O[C@@H]5CO[C@@H](C)O[C@H]5[C@H](O)[C@H]3O)[C@H]3COC(=O)[C@H]23)OCO4)cc(OC)c1O` [Etoposide, reference compound] the inhibition at 50 µM [2] was 71.95 ± 0.11%, the “CTRL-TST/CTRL*100 (inhibition) MCF-7, positive control” value ([2]; eto control row of the EC50 plates of 5l, 5e, 5i, concentration not given, listed as eto) was 70.96 and 73.49 and 73.1582 and the inhibition at 50 µM [3] was 77.65 ± 0.1%.
In the case of Bisindolylmaleimide-III [Bis-III], the “Inhibition of PKCα kinase activity” value [8] is listed as 93%.
